Measurements: patent US20260250318A1, “COMPOSITIONS AND METHODS FOR CROSSING THE BLOOD BRAIN BARRIER” (VOYAGER THERAPEUTICS, INC., priority 2022, published 2026)

Key:
Settings in all cases: synthetic library passage 3, intravenous, relative to wild-type AAV9
[1] = test system: brain, spinal cord, and DRG of the NHPs; assay: NGS fold enrichment of synthetic library (passage 3) in NHPs, first cross-species screen; format: in vivo, cynomolgus macaques (Macaca fascicularis)
Summary of the method: (§1)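 Fold enrichment versus wild-type AAV9 was derived by NGS of RT-PCR-amplified RNA from nervous tissue, collected e.g. 28 days after IV dosing […]. The library (passage 3) was given to two NHPs aged 2-4 years and to 6-8-week BALB/c and C57Bl/6 mice (n=3 each).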

brain [2] = assay: NGS fold enrichment of synthetic library (passage 3) in BALB/c mice, first cross-species screen; format: in vivo
Summary of the method: as §1

brain [3] = assay: NGS fold enrichment of synthetic library (passage 3) in C57Bl/6 mice, first cross-species screen; format: in vivo
Summary of the method: as §1

[4] = RNA from spinal cord of NHPs, NGS
[5] = RNA from brain of BALB/c mice, NGS
[6] = RNA from brain of C57Bl/6 mice, NGS

Sequence | Fold enrichment over AAV9 in the brain of NHPs ([1]; RNA from brain of NHPs, NGS) | Fold enrichment over AAV9 in the spinal cord of NHPs [1, 4] | Fold enrichment over AAV9 in the brain of Mice (BALB/c) (brain [2]; [5]) | Fold enrichment over AAV9 in the brain of Mice (C57Bl/6) (brain [3]; [6]) | Fold enrichment over AAV9 in the brain of NHPs ([1]; RNA NGS, brain of NHPs) | Fold enrichment over AAV9 in the spinal cord of NHPs ([1]; RNA NGS, spinal cord of NHPs) | Fold enrichment over AAV9 in the brain of Mice (BALB/c) (brain [2]; RNA NGS, brain of BALB/c mice) | Fold enrichment over AAV9 in the brain of Mice (C57Bl/6) (brain [3]; RNA NGS, brain of C57Bl/6 mice)
GSGQNQQTLTASKE | 1.333 fold | 1.152 fold | 1.172 fold | 0.981 fold |  |  |  | 
GSGQNQQTLYSSNT |  |  |  |  | 1.642 fold | 1.044 fold | 0.368 fold | 0.664 fold
GSGQNQQTMANGQR | 1.394 fold | 0.216 fold | 1.230 fold | 1.169 fold |  |  |  | 
GSGQNQQTMDHNRT |  |  |  |  | 2.130 fold | 4.944 fold | 0.440 fold | 0.642 fold
GSGQNQQTMIANIR |  |  |  |  | 1.076 fold | 0.000 fold | 0.458 fold | 0.379 fold
GSGQNQQTMLGKPC | 1.125 fold | 0.047 fold | 0.992 fold | 1.090 fold |  |  |  | 
GSGQNQQTMPQHKI |  |  |  |  | 1.097 fold | 2.394 fold | 0.197 fold | 0.479 fold
GSGQNQQTNLGHTT | 1.383 fold | 1.523 fold | 1.281 fold | 1.343 fold |  |  |  | 
GSGQNQQTNRGNPM |  |  |  |  | 1.860 fold | 3.402 fold | 1.098 fold | 1.349 fold
GSGQNQQTPGAHKT |  |  |  |  | 1.105 fold | 3.827 fold | 0.277 fold | 0.957 fold
GSGQNQQTPLRPPT |  |  |  |  | 1.624 fold | 0.352 fold | 0.472 fold | 0.874 fold
GSGQNQQTRLTDLT |  |  |  |  | 2.046 fold | 8.470 fold | 0.776 fold | 0.910 fold
GSGQNQQTRLVDLT |  |  |  |  | 2.342 fold | 9.348 fold | 0.490 fold | 1.268 fold
GSGQNQQTRQEGST | 1.339 fold | 0.000 fold | 0.718 fold | 0.645 fold |  |  |  | 
GSGQNQQTSGTTNC |  |  |  |  | 1.854 fold | 8.161 fold | 0.806 fold | 1.040 fold
GSGQNQQTSGVLTL |  |  |  |  | 1.553 fold | 0.000 fold | 0.782 fold | 1.104 fold
GSGQNQQTSHFPSA | 1.185 fold | 0.325 fold | 0.907 fold | 0.969 fold |  |  |  | 
GSGQNQQTSLQDQT |  |  |  |  | 2.505 fold | 0.500 fold | 0.968 fold | 0.315 fold
GSGQNQQTSLSNTA |  |  |  |  | 1.959 fold | 1.186 fold | 1.182 fold | 1.567 fold
GSGQNQQTSMSNAT |  |  |  |  | 1.501 fold | 6.766 fold | 0.745 fold | 1.605 fold

Sequence | Fold enrichment over AAV9 in the brain of NHPs ([1]; RNA from brain of NHPs, NGS) | Fold enrichment over AAV9 in the spinal cord of NHPs [1, 4] | Fold enrichment over AAV9 in the brain of Mice (BALB/c) (brain [2]; [5]) | Fold enrichment over AAV9 in the brain of Mice (C57Bl/6) (brain [3]; [6]) | Fold enrichment over AAV9 in the brain of NHPs ([1]; RNA NGS, brain of NHPs) | Fold enrichment over AAV9 in the spinal cord of NHPs ([1]; RNA NGS, spinal cord of NHPs) | Fold enrichment over AAV9 in the brain of Mice (BALB/c) (brain [2]; RNA NGS, brain of BALB/c mice) | Fold enrichment over AAV9 in the brain of Mice (C57Bl/6) (brain [3]; RNA NGS, brain of C57Bl/6 mice)
GSGQNQQTSPHNHT |  |  |  |  | 2.761 fold | 3.132 fold | 0.845 fold | 1.524 fold
GSGQNQQTSPRLQT |  |  |  |  | 1.100 fold | 0.795 fold | 1.091 fold | 1.156 fold
GSGQNQQTSQPLPG | 1.141 fold | 0.080 fold | 0.530 fold | 0.748 fold |  |  |  | 
GSGQNQQTSQSPPT | 1.194 fold | 1.208 fold | 0.478 fold | 0.851 fold |  |  |  | 
GSGQNQQTSTGVHS |  |  |  |  | 1.660 fold | 8.271 fold | 1.075 fold | 1.039 fold
GSGQNQQTSTTPLP |  |  |  |  | 1.052 fold | 2.823 fold | 0.741 fold | 0.828 fold
GSGQNQQTSVGFRT |  |  |  |  | 1.077 fold | 3.737 fold | 0.534 fold | 0.648 fold
GSGQNQQTSVSQNV | 1.281 fold | 0.750 fold | 0.715 fold | 0.788 fold |  |  |  | 
GSGQNQQTSVSQQT | 1.342 fold | 1.614 fold | 0.913 fold | 1.030 fold |  |  |  | 
GSGQNQQTSVYMNT |  |  |  |  | 1.498 fold | 0.613 fold | 0.983 fold | 0.640 fold
GSGQNQQTTAATRM | 1.163 fold | 3.925 fold | 1.005 fold | 0.947 fold |  |  |  | 
GSGQNQQTTASSHT |  |  |  |  | 1.618 fold | 7.404 fold | 0.678 fold | 0.745 fold
GSGQNQQTTSSNMT |  |  |  |  | 1.099 fold | 0.569 fold | 0.698 fold | 0.638 fold
GSGQNQQTVGGKNL | 1.203 fold | 0.128 fold | 1.051 fold | 0.777 fold |  |  |  | 
GSGQNQQTVGNPAT |  |  |  |  | 1.008 fold | 3.014 fold | 0.395 fold | 0.856 fold
GSGQNQQTVMTARA |  |  |  |  | 1.117 fold | 1.535 fold | 0.843 fold | 0.995 fold
GSGQNQQTVPSNLV | 1.201 fold | 0.791 fold | 0.281 fold | 0.434 fold |  |  |  | 
GSGQNQQTVPTRQT |  |  |  |  | 1.040 fold | 1.207 fold | 0.138 fold | 0.629 fold
GSGQNQQTVQSNLV |  |  |  |  | 1.103 fold | 2.350 fold | 0.698 fold | 0.577 fold
GSGQNQQTVSRQST |  |  |  |  | 1.820 fold | 0.472 fold | 0.796 fold | 1.330 fold
